Values joined by “and” are separate entries in the source; they are usually repeats but may differ in a detail not shown here. Equal values may be shown once.
System: human ovarian cancer cisplatin-resistant cultured cell A2480CP
Assay: ^13C-NMR of excised cancer cells and femoral muscle after intravenous administration to tumour-bearing nude mice
Conditions: for ^13C Area integrated value, Cancer cells: 300 mg/kg, caudal vein, peak areas 90 to 160 ppm, relative to 100 = first animal after 8 hours, two animals
Description: Nude mice (female BALB Cnu/nu, about 8 mm in cancer diameter) were used after 3 weeks of the transplantation of 2×10^6 cells/animal of human ovarian cancer cisplatin-resistant cultured cell A2480CP to the right-side body subcutaneously. Preparation of ^13C-labeled 5-aminolevulinic acid aqueous solution:
5-Aminolevulinic acid hydrochloride in which the 5-position carbon was replaced with ^13C (Production Example 4) was used. The 5-aminolevulinic acid hydrochloride in which the 5-position carbon was replaced with ^13C was dissolved in distilled water at a ratio of 25 g/L, and the solution was neutralized to pH 7 with sodium hydroxide.
The thus neutralized solution was sterilized by immediately passing through a 0.22 μm filter and administered from the mouse caudal vein at a ratio of 12 μl per g body weight. This dose corresponds to 300 mg administration of 5-aminolevulinic acid hydrochloride per 1 kg body weight. After 2, 4 and 8 hours of the administration, mice were sacrificed and subjected to bloodletting, and then the cancer cells and femoral part were excised and packed in 10 mmφ NMR sample tubes to the same volume to measure ^13C-NMR by super-conductive NMR, JNM-A400 manufactured by JEOL, at an observation frequency of 100.50 MHz using a proton decoupling method.
After the measurement, peak areas of from 90 to 160 ppm were integrated, and relative values were calculated based on the value 100 of the first animal after 8 hours of the administration. The test was carried out using two animals for each condition.

## Cl.N[13CH2]C(=O)CCC(=O)O [^13C-labeled 5-aminolevulinic acid, 5-Aminolevulinic acid hydrochloride in which the 5-position carbon was replaced with ^13C]
2 hours after administration
  ^13C Area integrated value, Cancer cells: 19 and 22
4 hours after administration
  ^13C Area integrated value, Cancer cells: 89 and 73
8 hours after administration
  ^13C Area integrated value, Cancer cells: 100 and 87
Summary of Table 3, 2, 4 and 8 hours after administration
  existing frequency of ^13C, cancer cells versus muscle: higher in the cancer cells than in the muscle

— US7135162B2, “Agent for diagnosing and treating malignant tumors” (Cosmo Research Institute, priority 1997, dated 2006)
